Columns and labels:
[1] = system: Yellow Fever Virus (YF-IRES-Luc); assay: microbe, parasite or virus in culture; assay type: cell-based
[2] = system: uninfected BHK cells; assay type: cell-based, hamster
[3] = molecular target: fire-fly luciferase (Photinus pyralis, UniProt P08659, K549A/L550V/N119G/N50D/S548I); assay: Direct luciferase inhibition assay; assay type: cell-based; settings: cells transfected with luciferase-pcDNA3; data not shown
[4] = In vitro hydrolytic stability assay utilizing rat plasma

Chain of fire-fly luciferase (P08659 whole entry N50D/N119G/S548I/K549A/L550V): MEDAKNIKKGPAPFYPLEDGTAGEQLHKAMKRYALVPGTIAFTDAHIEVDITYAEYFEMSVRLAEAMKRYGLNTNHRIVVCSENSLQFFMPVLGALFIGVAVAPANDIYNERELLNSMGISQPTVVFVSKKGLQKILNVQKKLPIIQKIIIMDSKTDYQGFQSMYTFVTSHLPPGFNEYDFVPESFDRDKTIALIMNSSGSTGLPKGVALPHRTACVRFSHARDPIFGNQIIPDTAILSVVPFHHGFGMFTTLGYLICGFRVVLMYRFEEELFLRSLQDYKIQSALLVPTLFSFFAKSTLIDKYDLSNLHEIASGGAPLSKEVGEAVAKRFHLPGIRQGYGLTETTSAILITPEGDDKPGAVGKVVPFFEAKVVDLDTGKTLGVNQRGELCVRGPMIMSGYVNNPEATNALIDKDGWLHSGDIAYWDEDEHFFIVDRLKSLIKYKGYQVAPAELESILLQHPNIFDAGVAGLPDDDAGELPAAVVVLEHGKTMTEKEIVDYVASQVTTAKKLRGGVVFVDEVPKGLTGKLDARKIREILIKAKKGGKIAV

## COC(=O)c1sc(-c2cccc(Br)c2)nc1C(Br)Br [Compound 6c, Methyl 2-(3-Bromophenyl)-4-(dibromomethyl)thiazole-5-carboxylate]
[1]
  antiflaviviral activity (in words): weak activity

## COC(=O)c1sc(Cc2ccccc2)nc1C [Compound 5o]
[1]
  antiflaviviral activity (in words): inactive

## COC(=O)c1sc(-c2ccc(C(C)(C)C)cc2)nc1C [Compound 5l]
[1]
  antiflaviviral activity (in words): inactive

## COC(=O)c1sc(-c2ccc(Cl)c(Cl)c2)nc1C(Br)Br [Compound 6j, Methyl 4-(Dibromomethyl)-2-(3,4-dichlorophenyl)thiazole-5-carboxylate]
[1]; Yellow fever virus, BHK, read-out: % Inhibition (reduction in luciferase activity)
  inhibition at 50 µM: < 50%

## COC(=O)c1sc(-c2ccccc2)nc1C(Br)Br [Compound 6a, Methyl 4-(Dibromomethyl)-2-phenylthiazole-5-carboxylate]
[1]
  antiflaviviral activity (in words): very weak antiflaviviral inhibitory activity

## CCCCc1ccc(-c2nc(C)c(C(=O)O)s2)cc1 [Compound 8, 2-(4-Butylphenyl)-4-methylthiazole-5-carboxylic Acid]
[1]
  antiflaviviral activity (in words): inactive

## Methyl 4-Methyl-2-(naphthalen-2-yl)thiazole-5-carboxylate [Compound 5k]
[2]
  GI50: 434 ± 23.3 µM
[1]
  EC50: 35.7 ± 22.7 µM
[1]; 50 µM
  % Inhibition (reduction in luciferase activity): 78.4%

## CCCCc1ccc(-c2nc(C)c(/C(C)=N/NC(=N)N)s2)cc1 [Compound 12, 2-(1-(2-(4-Butylphenyl)-4-methylthiazol-5-yl)ethylidene)hydrazinecarboximidamide]
[3]
  reduction of luciferase activity: No reduction of luciferase activity was observed
[4]
  half-life, times higher than the lead compound 2: around 6 times
